The values below come from patent publication US20080280920A1, “Plasminogen Activator Inhibitor-1 Inhibitors” (priority 2005, published 2008).

Each structure is given as a SMILES string.

For orientation: IC50 means the point on the concentration scale where inhibition reaches its midpoint. Low values mean inhibition by little substance, high ones a need for much substance.

The target in one assay is T1, wildtype human PAI-1 (Homo sapiens, UniProt P05121).
T1 construct: purchased Molecular Innovations Lot# HWT-804
T1 sequence (P05121 24-402): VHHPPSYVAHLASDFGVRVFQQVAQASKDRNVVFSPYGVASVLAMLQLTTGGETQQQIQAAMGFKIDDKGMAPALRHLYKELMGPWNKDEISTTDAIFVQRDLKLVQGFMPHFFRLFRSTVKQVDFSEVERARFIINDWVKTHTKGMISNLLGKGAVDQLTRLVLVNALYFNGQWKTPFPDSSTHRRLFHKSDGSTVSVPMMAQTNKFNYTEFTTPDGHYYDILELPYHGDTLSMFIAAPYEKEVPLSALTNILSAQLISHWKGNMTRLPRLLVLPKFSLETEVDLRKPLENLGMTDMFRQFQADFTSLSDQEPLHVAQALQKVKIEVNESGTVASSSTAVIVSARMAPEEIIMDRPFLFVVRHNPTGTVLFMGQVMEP
Kind of assay: PAI-1/uPA assay (residual uPA activity, fluorescent substrate SpectroFluor). In kind it is biochemical. The note with it: for Percent PAI-1 inhibition: at the concentration given, percent of activity of untreated PAI-1; for Conc. of compound required for PAI-1 inhibition: concentration giving the percent inhibition, 6 nM PAI-1, 8 nM uPA. Here is the method: Principle: The assay is based on using a fluorescent substrate (SpectroFluor) to measure residual uPA following inhibition of uPA by PAI-1. PAI-1 used in the assay is pre-treated in the presence of increasing concentrations of the lead compounds to screen for any inhibitory effects on PAI-1. Method: This assay was performed in 96 well microtiter plates. The concentrations of uPA (8 nM) and PAI-1 (6 nM) used in this assay were carefully optimized when using the fluorescent substrate, SpectroFluor™. Stock solutions (10 mM) of all lead compounds were prepared fresh in DMSO. […] 20 μl of 6 nM wildtype human PAI-1 (Molecular Innovations, Lot# HWT-804) was incubated for 15-20 minutes at room temperature in 96 well microtiter plates either with buffer, (50 mM HEPES, 150 mM NaCl, 0.05% Tween-20, 1% BSA, pH 6.6) or various concentrations (10 nM to 100 μM final concentration) of lead compounds in a total volume of 80 μl. A 20 μl aliquot of 8 nM uPA (HMW) solution in 0.05M Tris Buffered™ saline (TBS), pH 8.4 was added to each well and the mixture incubated for an additional 5 minutes at RT. The proteolytic reaction was initiated by addition of 50 μl of 0.1 mM SpectroFluor (Spectrozyme UK Fluorogenic substrate) to each well. The kinetics of the free chromophore, 7-amino-4-methylcoumarin (AMC) released in the course of peptide cleavage by the protease, uPA, was monitored for 30 minutes at 37° C. on a spectrofluorometric microplate reader with an excitation wavelength of 360 nm and emission wavelength of 440 nm. Kinetic data regarding the rate of substrate cleavage by uPA was acquired with Softmax PrO™ software. The difference between the residual uPA activity in the presence or absence of untreated PAI-1, at the molar ratio used, was considered as the “total” PAI-1 activity (100%). The inhibition of uPA by PAI-1 treated with lead compounds was expressed as a percentage of the initial activity of untreated PAI-1. Controls were performed during each experiment to ensure the nearly complete inhibition of uPA by untreated PAI-1 and also to ensure the absence of any direct effect of the lead compounds on uPA alone or on SpectroFluor.

Assay [1] addresses T2, PAI-1 interaction with vitronectin (Homo sapiens, UniProt P05121).
T2 construct: purchased Molecular Innovations
Nature of the assay: PAI-1 vitronectin interaction ELISA. In kind it is binding. The conditions noted are these: 15 nM PAI-1, vitronectin coated plates. Here is the method: Principle: This ELISA assay is based on the interaction of wildtype human PAI-1 (aa 110-145) with the N-terminal somatomedin B-like (SMB) domain (aa 1-40) on vitronectin. PAI-1 was allowed to bind to vitronectin coated plates. The bound PAI-1 was detected with a HRP-conjugated polyclonal goat anti-human PAI-1 antibody using a standard ELISA method. In order to screen these compounds for their ability to disrupt PAI-1's interaction with vitronectin, PAI-1 was pre-incubated with various concentrations of the lead compounds before being allowed to bind to vitronectin.
Method: Human monomeric vitronectin (Vn; Molecular Innovations) was diluted to a concentration of 2.5 μg/ml in a buffer containing 100 mM Na2CO3, pH 9.6. […]
In a separate 96-well microtiter plate 20 μL per well of wildtype human PAI-1 (15 nM final concentration) was added with or without various concentrations of lead compounds (1 μM to 1000 μM final concentration) and incubated at room temperature for 15 minutes on a rotating shaker. […] Optical density was measured at 450 nm on a SoftMax PrO™ plate reader.
Where vitronectin inhibition was evident, IC50 values for a test compound were calculated by fitting a non-linear sigmoidal regression curve to log micromolar concentration versus optical density data.
(In an ELISA, binding on a coated surface is turned into a signal by an enzyme label.)

T2 sequence (P05121 24-402): as above

`CCOC(=O)[C@H](CCCNC(=N)NS(=O)(=O)c1c(C)cc(OC)c(C)c1C)NC(=O)N[C@@H](Cc1csc2ccccc12)C(=O)OCC` [Compound Q012059, (2S)-2-[({[(1S)-1-carboxy-2-(thianaphthen-3-yl)ethyl]amino}carbonyl)amino]-5-({imino[(4-methoxy-2,3,6-trimethylphenylsulfonyl)amino]methyl}amino)pentanoic acid diethyl ester]: at wildtype human PAI-1, the “Percent PAI-1 inhibition” value came out at 23 and the “Conc. of compound required for PAI-1 inhibition” value came to 10 µM. In assay [1], this compound gave a concentration for half-maximal inhibition (IC50) of 910 µM.

For the compound `COc1cc(CNCCCn2ccnc2)cc(CN2CCN(c3ncccn3)CC2)c1O` [Compound Q012110, 2-Methoxy-4-({3-[(1H-imidazol-1-yl)propyl]amino}methyl)-6-[(4-pyrimidin-2-ylpiperazin-1-yl)methyl]phenol], on wildtype human PAI-1, the “Percent PAI-1 inhibition” value came to 57 and the “Conc. of compound required for PAI-1 inhibition” value stood at 5 µM. This compound came in with an IC50 in assay [1] of 340 µM.
